Measurements taken from ChEMBL document CHEMBL4725319, “Discovery of attenuation effect of orexin 1 receptor to aversion of nalfurafine: Synthesis and evaluation of D-nor-nalfurafine derivatives and analyses of the three active conformations of nalfurafine” (Bioorg Med Chem Lett, 2020).
The source made the active and inactive calls. No cut-off for these calls is given here.

Tests used:
[1] = test system: Mus musculus; test: Analgesic activity in OX1R knock out mouse assessed as increase in wheel running activity at 40 ug/kg; type: functional, organism-based; conditions: dose 40.0 µg/kg
[2] = Toxicity in mouse assessed as conditioned place aversion at 10 to 40 microg/kg, sc; conditions: in vivo, dose 10-40 µg/kg
[3] = test system: Mus musculus; test: Analgesic activity in OX1R knock out mouse assessed as increase in wheel running activity at 4 to 10 ug/kg; type: functional, organism-based; conditions: dose microg/kg 4-10
[4] = Toxicity in dual OX1/2R knock out mouse assessed as increase in conditioned place aversion at 10 to 40 microg/kg, sc; conditions: in vivo, dose 10-40 µg/kg
[5] = Dissociation constant, pKa of compound; type: physicochemical

Q: Which Activity [1] does the source give for `CN(C(=O)/C=C/c1ccoc1)[C@@H]1CC[C@@]2(O)[C@H]3Cc4ccc(O)c5c4[C@@]2(CCN3CC2CC2)[C@H]1O5` [NALFURAFINE] here?
A: Active

Q: And the Activity [2]?
A: Non-Toxic

Q: And the Activity [3]?
A: inactive

Q: And the Activity [4]?
A: Toxic

Q: And the pKa [5]?
A: 9.4
